The structures appear in SMILES notation.

One data set has as its target T1, CRBN (Homo sapiens, UniProt Q96SW2).
T1 construct: western blot analysis of the levels of CRBN and VHL E3 ligase in cell lysate; endogenous in cells; host or cells: HEK293 (ATCC)
As to the kind of experiment: E3 ligase homo-degradation by western blot, CRBN. The data set is classed as cell-based. Conditions: HEK293 cells, 4 h, 0.1, 1 and 10 μM. The source says:
(§1) 4. Biological experiments
(§2) Primary antibodies used for western blotting included anti-human BRD2(1:2000, rabbit monoclonal, Abcam, ab139690), anti-human BRD3 (1:1000, rabbit monoclonal, Abcam, ab264420), anti-human BRD4 (E2A7X) (1:1000, rabbit monoclonal, Cell Signaling Technology, #13440), anti-human VHL (1:1000, rabbit polyclonal, Cell Signaling Technology, #68547), anti-human CRBN (D8H3S) (1:1000, rabbit polyclonal, Cell Signaling Technology, #71810), anti-human alpha Tubulin, clone B-5-1-2 (1:5000, mouse monoclonal, Merck Life Science, # 32-2500).Secondary antibodies used for western blot included: anti-mouse horseradish peroxidase-linked antibody (1:3000, sheep, GE Healthcare Life Sciences, #NA931V), and anti-rabbit horseradish peroxidase-linked antibody (1:8000, donkey, GE Healthcare Life Sciences, #NA934V). Reagent for degradation assay and compounds […]
dr. Serge Van Calenbergh, Ghent University).
4.2 Cell lines and culture
HEK293, A549, SKOV-3, HCT116 cells (ATCC)were grown in DMEM (Gibco),and all cells were supplemented with 10% (v/v) fetal bovine serum (FBS) (Sigma), […] penicillin/streptomycin solution (Thermo Fisher Scientific) and maintained at 37 °C and 5% CO2 in a humidified atmosphere. All cells used were tested monthly using the Mycoalert Mycoplasma Detection Kit (cat. no. LT07-318, Lonza) to exclude mycoplasma contamination.
4.3 Degradation assays by Western blot
General method of Western blot: Lysates were sonicated and centrifuged at 4 °C at 20000 g for 15 min, and the supernatants were transferred to new tubes. Protein concentration of cell lysates was measured using the DC Protein Assay kit (BIO-RAD) following manufacturer's instructions. Cell lysates were mixed with reducing sample buffer (0.5 M Tris-HCl (pH 6.8), 43% glycerol, 9.2% SDS, 5% 2-mercaptoethanol, 5% bromophenol blue) and boiled for 5 min at 95°C. […]
(§3) Figure S5 Homo-degradation effect in Dual-ligand PROTACs. […] Subsequently, cell lysates were prepared and the protein levels of CRBN or VHL E3 ligase were assessed by Western blotting. […]
For orientation: Immunoblotting shows a protein as a band on a membrane.

In another data set the target is T2, VHL (Homo sapiens, UniProt P40337).
T2 construct: western blot analysis of the levels of CRBN and VHL E3 ligase in cell lysate; endogenous in cells; host or cells: HEK293 (ATCC)
T2 sequence (P40337 whole entry): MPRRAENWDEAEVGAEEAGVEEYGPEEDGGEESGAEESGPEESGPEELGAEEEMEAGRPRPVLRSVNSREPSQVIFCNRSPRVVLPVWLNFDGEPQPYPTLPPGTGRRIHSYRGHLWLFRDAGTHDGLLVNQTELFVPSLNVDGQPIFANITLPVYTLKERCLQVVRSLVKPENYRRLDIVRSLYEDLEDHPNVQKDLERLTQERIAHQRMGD
As to the kind of experiment: E3 ligase homo-degradation by western blot, VHL. The data set is classed as cell-based. The note with it: HEK293 cells, 4 h, 1 μM and 10 μM.
From the text: as §1, §2
dr. Serge Van Calenbergh, Ghent University). […]
General method of Western blot: Lysates were sonicated and centrifuged at 4 °C at 20000 g for 15 min, and the supernatants were transferred to new tubes. Protein concentration of cell lysates was measured using the DC Protein Assay kit (BIO-RAD) following manufacturer's instructions. […]
as §3

A further data set concerns the target T3, BRD4 (Homo sapiens, UniProt O60885).
T3 construct: BRD2, BRD3 and BRD4 protein levels were measured by western blot; endogenous in cells; host or cells: HEK293 (ATCC)
Briefly: Western blot degradation of BRD4 in HEK293 cells. The data set is classed as cell-based. The note with it: HEK293 cells, 4 h, 0.1 μM to 1 nM, Fig. S2.

For data set [1], the system named is HEK293, A549, HCT116 and SKOV-3. As to the kind of experiment: CellTiter-Glo metabolic activity, cell line panel. The data set is classed as cell-based. The note with it: 48 h. As to the method:
(§4) 4.4 Cell viability assay on 2D cells cultures
(§5) HEK293, HCT116, A549,andSKOV-3 cells were seeded in 96-well tissue culture plates at a density of 2000-3000 cells per well in 100 µl of growth medium and incubated overnight at 37 °C with 5% CO2. The following day, the cells were treated with various concentrations of compounds or 0.05% DMSO for 48 h. After treatment, add 100 μl of Cell Titer-Glo® 2.0 Reagent (cat. no. G9243, Promega) in each well, then the 96-well plates were put on an orbital shaker for 10 min and then allow the plate to incubate at room temperature for 10-20min to stabilize the luminescent signal. Luminescence readout (Gen5 Data Analysis Software v3.08.01) was performed to record luminescence.
(§6) (1 picture or pasted object on this page, not shown here)
A general note: ATP-based viability assays read luminescence as a measure of living cells.

The subject of a further data set is HCT116 cells. Briefly: CellTiter-Glo 2D metabolic activity assay, HCT116. Format: cell-based. The note with it: Homo sapiens, HCT-116, 2D culture, 48 h. As to the method:
as §4, §5, §6

Data set [2] in a line: Parallel artificial membrane permeability assay (PAMPA). The data set is classed as in vitro ADME. The note with it: 10 uM, pH 7.4, four hours. How it is done: 4.9 Study of membrane permeability of single-ligand and dual-ligand PROTACs Parallel artificial membrane permeability assay (PAMPA) is a non-cell based assay designed to predict passive, transcellular permeability of a test compound through a PVDF membrane filter pretreated with lipid. At a given pH a log Pe (log of effective permeability) can be determined by a UV spectrophotometer. […]
is carried out in the company of Eurofins Panlabs, 6 Research Park Dr. St. Charles, MO 63304, U.S.A. The results are attached as an excel file.
Sample preparation The test compound is prepared from a 10 mM DMSO stock solution and diluted to a single final concentration of 10 uM in donor buffer. The donor solution is placed in contact with the acceptor buffer at a single pH = 7.4 with the membrane in between and the sandwich is incubated for four hours at ambient temperature.
Reference compounds Ketoprofen, propranolol and furosemide. The reference compounds yield log Pe (10-6 cm/s) values that cover the typical range of the assay from high (Propranolol), mid (Ketoprofen) to low (Furosemide) permeability.
Analytical method UV/Vis spectrophotometer
The UV absorption is measured from 250 to 500 nm for both donor and acceptor plate.
Adjustments to the method may be made as necessary to improve detection or UV spectrum.
Data analysis The amount of compound UV absorbance is determined in the donor plate prior to starting the experiment for each compound. The UV absorbance was measured from the (1 picture or pasted object on this page, not shown here) […]
donor and acceptor plate after a four hour incubation time. The log Pe was calculated using […]
4.10 Statistical Analysis.
Data analyses were performed using GraphPad Prism 9 software. The results are presented as the mean ± standard deviation (SD) or standard error of mean (SEM). All statistical analyses were evaluated with one-way analysis of variance (ANOVAs), or unpaired Student’s t-test. The difference was considered statistically significant when P < 0.05.
In general terms: In PAMPA a lipid-coated filter parts donor from acceptor wells.

The next data set deals with A549 spheroids. As to the kind of experiment: CellTiter-Glo 3D assay on spheroids. Format: cell-based. Conditions: Homo sapiens, 72 h, read-out: EC50, spheroid metabolic activity. As to the method:
4.5 Cell viability assay on 3D cell cultures
The single cell suspension containing 2.5 ×10^4 cells/ml of A549 or 2 ×10^4 cells/ml of HCT116 were seeded into the U-shaped, 384-well ULA plates (cat. no. MS-9384UZ, S-bio), each well containing 80 μl single cell suspension. The 384-well ULA plates were sealed with Breath-Easy semipermeable tape (cat. no. BEM-1, Diversified Biotech) to prevent evaporation. The spheroids were put into incubator and then cultured at 37 °C and 10% CO2. After 48h of spheroids formation, the spheroids were treated with various concentrations of compounds or 0.05% DMSO. After 72h treatment, each spheroid in the culture medium was pipetted into white micro-96-well plates (cat. no. 236108, ThermoFisher) and an equal volume of Cell Titer-Glo 3D (cat. no. G9683, Promega) reagent was added. Luminescence readouts were the same as described above for 2D culture.

The test system of a further data set is HEK293 cells. As to the kind of experiment: CellTiter-Glo 2D metabolic activity assay, HEK293. Format: cell-based. The note with it: Homo sapiens, 2D culture, 48 h. How it is done: Figure S5 Homo-degradation effect in Dual-ligand PROTACs. HEK293 cells were treated with all synthesized PROTACs or 2V-alkyne/2P-alkyne for 4 hours. Subsequently, cell lysates were prepared and the protein levels of CRBN or VHL E3 ligase were assessed by Western blotting. (A) Representative image of CRBN or VHL E3 ligase homo-degradation was screened for all PROTACs and commercial single-ligand PROTACs at a concentration of 0.1, 1 and 10 µM, respectively (equivalent volume of DMSO as control group). (B) Representative image of CRBN or VHL E3 ligase homo-degradation was screened for 2P-alkyne or 2V-alkyne at a concentration of 0.1, 1 and 10 µM, respectively (equivalent volume of DMSO as control group). Experiments were performed as three independent replicates.
as §4
HEK293, HCT116, A549,andSKOV-3 cells were seeded in 96-well tissue culture plates at a density of 2000-3000 cells per well in 100 µl of growth medium and incubated overnight at 37 °C with 5% CO2. The following day, the cells were treated with various concentrations of compounds or 0.05% DMSO for 48 h. […] Luminescence readout (Gen5 Data Analysis Software v3.08.01) was performed to record luminescence. […]

For the next data set, the system named is A549 cells. As to the kind of experiment: CellTiter-Glo 2D metabolic activity assay, A549. Format: cell-based. Conditions: Homo sapiens, 2D culture, 48 h. As to the method:
as §4, §5, §6

T1 sequence (Q96SW2 whole entry): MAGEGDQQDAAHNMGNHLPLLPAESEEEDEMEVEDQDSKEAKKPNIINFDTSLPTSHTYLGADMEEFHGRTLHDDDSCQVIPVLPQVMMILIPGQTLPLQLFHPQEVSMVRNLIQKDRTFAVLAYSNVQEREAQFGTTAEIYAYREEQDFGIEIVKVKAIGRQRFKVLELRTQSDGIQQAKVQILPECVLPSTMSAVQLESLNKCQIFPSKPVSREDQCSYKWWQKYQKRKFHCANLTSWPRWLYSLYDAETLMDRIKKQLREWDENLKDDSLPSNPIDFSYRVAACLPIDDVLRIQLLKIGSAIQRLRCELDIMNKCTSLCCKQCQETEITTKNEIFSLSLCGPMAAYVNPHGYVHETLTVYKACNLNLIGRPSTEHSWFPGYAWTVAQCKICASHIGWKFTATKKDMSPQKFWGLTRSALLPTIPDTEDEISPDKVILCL
Experimental for BRD4: HEK293, A549, SKOV-3, HCT116 cells (ATCC)were grown in DMEM (Gibco),and all cells were supplemented with 10% (v/v) fetal bovine serum (FBS) (Sigma), 100 mg/mL penicillin/streptomycin solution (Thermo Fisher Scientific) and maintained at 37 °C and 5% CO2 in a humidified atmosphere. All cells used were tested monthly using the Mycoalert
at 95°C. Proteins were separated by SDS–PAGE (SDS polyacrylamide gel electrophoresis) with 25–40 µg of total protein per well, transferred to 0.2-μm-pore nitrocellulose membranes (BIO-RAD), then blocked in 5%(w/v) milk in PBS and 0.5% Tween-20, and incubated overnight at 4°C with primary antibodies described in section 4.1. Secondary antibodies were added for 1h at room temperature after 3 times washing with blocking buffer. After 6 times of washing
with PBS (Thermo Fisher Scientific) and 0.5% Tween-20, Blots were detected using the Clarity Western ECL Substrate (BIO-RAD) and visualized on iBright CL 750 (Thermo Fisher Scientific) and images were analyzed using iBright Firmware 1.7.0.
4.3.1 Evaluation of the degradation capacity of PROTACs […]

`Cc1sc2c(c1C)C(c1ccc(Cl)cc1)=N[C@@H](CC(=O)NCCOCCOCCOCCn1cc(CCC(=O)N[C@@H](CC(=O)NCCOCCOCCNc3cccc4c3C(=O)N(C3CCC(=O)NC3=O)C4=O)C(=O)NCCOCCOCCNc3cccc4c3C(=O)N(C3CCC(=O)NC3=O)C4=O)nn1)c1nnc(C)n1-2` (stereo partly drawn) [1J2P]: the “CRBN level (homo-degradation)” value on CRBN is on record as “did not induce any significant decrease of CRBN”.

Turning to `Cc1ncsc1-c1ccc(C(C)NC(=O)C2CC(O)CN2C(=O)C(NC(=O)COCCOCCNC(=O)CC(NC(=O)CCc2cn(CCOCCOCCOCCNC(=O)CC3N=C(c4ccc(Cl)cc4)c4c(sc(C)c4C)-n4c(C)nnc43)nn2)C(=O)NCCOCCOCC(=O)NC(C(=O)N2CC(O)CC2C(=O)NC(C)c2ccc(-c3scnc3C)cc2)C(C)(C)C)C(C)(C)C)cc1` (stereo not drawn) [1J2V], the VHL homo-degradation result on VHL was “did induce homo-degradation of VHL”.

Regarding `Cc1sc2c(c1C)C(c1ccc(Cl)cc1)=N[C@@H](CC(=O)NCCOCCOCCNC(=O)C[C@H](NC(=O)COCCOCCOCCOCCn1cc(CNc3cccc4c3C(=O)N(C3CCC(=O)NC3=O)C4=O)nn1)C(=O)NCCOCCOCCNC(=O)C[C@@H]1N=C(c3ccc(Cl)cc3)c3c(sc(C)c3C)-n3c(C)nnc31)c1nnc(C)n1-2` (stereo partly drawn) [2J1P], the “protein degradation potency, controls with similar linker length” value at BRD4 is given as “could still potently degrade the BRD proteins”. In addition, the “metabolic inhibition, comparison” value in data set [1] is listed as “higher metabolic inhibition compared to single-ligand PROTACs”.

In the case of `Cc1ncsc1-c1ccc(C(C)NC(=O)C2CC(O)CN2C(=O)C(NC(=O)CCc2cn(CCOCCOCCOCCOCC(=O)NC(CC(=O)NCCOCCOCCNC(=O)CC3N=C(c4ccc(Cl)cc4)c4c(sc(C)c4C)-n4c(C)nnc43)C(=O)NCCOCCOCCNC(=O)CC3N=C(c4ccc(Cl)cc4)c4c(sc(C)c4C)-n4c(C)nnc43)nn2)C(C)(C)C)cc1` (stereo not drawn) [2J1V], at BRD4, the “protein degradation potency, controls with similar linker length” value is “could still potently degrade the BRD proteins”. Moreover, the “metabolic inhibition, comparison” value in [1] is “higher metabolic inhibition compared to single-ligand PROTACs”.

With `C#CCCC(=O)N[C@@H](CC(=O)NCCOCCOCCNc1cccc2c1C(=O)N(C1CCC(=O)NC1=O)C2=O)C(=O)NCCOCCOCCNc1cccc2c1C(=O)N(C1CCC(=O)NC1=O)C2=O` (stereo partly drawn) [2P-alkyne], the “CRBN level (homo-degradation)” value on CRBN is on record as “did not induce any degradation of CRBN”.

For orientation: EC50 means the concentration that produces a half-maximal response. For the compound `Cc1sc2c(c1C)C(c1ccc(Cl)cc1)=NC(CC(=O)NCCCCNC(=O)COc1cccc3c1C(=O)N(C1CCC(=O)NC1=O)C3=O)c1nnc(C)n1-2` (stereo not drawn) [dBET1], the EC50 with HCT116 cells is above 10000 nM; in the data set with A549 spheroids, 7000 nM; with HEK293 cells it was 900 nM; in the data set with A549 cells, 2000 nM. Moreover, the membrane permeability entry in data set [2] is recorded as “very limited membrane permeability”.

(Values after PMC11462456 (Chemical Science, 2024).)
